Usually pIC50 stands for −log10 of the IC50, conventionally taken in molar units.

One molecule from ChEMBL document CHEMBL4602694, “Suppression of Drug-Resistant Non-Small-Cell Lung Cancer with Inhibitors Targeting Minichromosomal Maintenance Protein” (J Med Chem, 2020) can be followed below.

Data set [1] addresses T1, DNA replication licensing factor MCM6 (Homo sapiens) (UniProt Q14566).
T1 sequence (whole entry): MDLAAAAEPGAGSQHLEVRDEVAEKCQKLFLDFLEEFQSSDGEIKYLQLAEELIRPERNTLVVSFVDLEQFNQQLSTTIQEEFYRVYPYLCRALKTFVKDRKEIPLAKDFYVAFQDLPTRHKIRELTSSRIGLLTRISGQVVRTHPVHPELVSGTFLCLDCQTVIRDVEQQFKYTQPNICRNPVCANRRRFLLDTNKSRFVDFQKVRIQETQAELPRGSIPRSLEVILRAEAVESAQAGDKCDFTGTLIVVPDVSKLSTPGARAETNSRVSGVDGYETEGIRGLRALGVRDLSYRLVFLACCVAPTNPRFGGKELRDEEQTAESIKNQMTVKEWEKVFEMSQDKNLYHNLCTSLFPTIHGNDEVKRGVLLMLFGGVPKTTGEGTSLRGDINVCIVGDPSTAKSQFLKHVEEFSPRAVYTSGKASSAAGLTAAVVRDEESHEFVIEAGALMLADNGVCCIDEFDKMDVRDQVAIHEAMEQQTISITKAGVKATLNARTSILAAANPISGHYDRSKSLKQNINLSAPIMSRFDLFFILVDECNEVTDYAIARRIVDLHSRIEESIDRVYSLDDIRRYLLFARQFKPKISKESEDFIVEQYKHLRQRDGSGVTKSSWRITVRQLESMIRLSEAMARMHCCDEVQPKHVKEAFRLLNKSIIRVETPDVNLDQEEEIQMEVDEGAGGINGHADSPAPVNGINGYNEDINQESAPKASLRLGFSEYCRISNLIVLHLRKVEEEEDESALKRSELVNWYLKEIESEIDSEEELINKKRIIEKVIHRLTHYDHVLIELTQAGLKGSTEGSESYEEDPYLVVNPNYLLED
Put plainly: Induction of ubiquitination of MCM6 in human NCI-H1975 cells at 140 nM in presence of MG132 incubated for 48 hrs followed by MG132 addition and measured after 12 hrs by immunoblot analysis. It is filed as cell-based. On the technique in general: In western blotting, separated proteins are transferred to a membrane and probed.

A short description of data set [2]: Selectivity index, ratio of IC50 for human bronchial epithelial cells to IC50 for human PC9IR cells. Format: toxicity. The note with it: human bronchial epithelial cells versus PC9IR cells, read-out: Ratio IC50.
For data set [3], the target named is DNA replication licensing factor MCM2 (Homo sapiens) (UniProt P49736). Put plainly: Induction of ubiquitination of FLAG-tagged MCM2 in human 293T cells incubated for 4 hrs by magnetic beads technique based immunoblot analysis. Format: cell-based. Conditions: HEK-293T.
Chain of DNA replication licensing factor MCM2 (Homo sapiens) (P49736 whole entry): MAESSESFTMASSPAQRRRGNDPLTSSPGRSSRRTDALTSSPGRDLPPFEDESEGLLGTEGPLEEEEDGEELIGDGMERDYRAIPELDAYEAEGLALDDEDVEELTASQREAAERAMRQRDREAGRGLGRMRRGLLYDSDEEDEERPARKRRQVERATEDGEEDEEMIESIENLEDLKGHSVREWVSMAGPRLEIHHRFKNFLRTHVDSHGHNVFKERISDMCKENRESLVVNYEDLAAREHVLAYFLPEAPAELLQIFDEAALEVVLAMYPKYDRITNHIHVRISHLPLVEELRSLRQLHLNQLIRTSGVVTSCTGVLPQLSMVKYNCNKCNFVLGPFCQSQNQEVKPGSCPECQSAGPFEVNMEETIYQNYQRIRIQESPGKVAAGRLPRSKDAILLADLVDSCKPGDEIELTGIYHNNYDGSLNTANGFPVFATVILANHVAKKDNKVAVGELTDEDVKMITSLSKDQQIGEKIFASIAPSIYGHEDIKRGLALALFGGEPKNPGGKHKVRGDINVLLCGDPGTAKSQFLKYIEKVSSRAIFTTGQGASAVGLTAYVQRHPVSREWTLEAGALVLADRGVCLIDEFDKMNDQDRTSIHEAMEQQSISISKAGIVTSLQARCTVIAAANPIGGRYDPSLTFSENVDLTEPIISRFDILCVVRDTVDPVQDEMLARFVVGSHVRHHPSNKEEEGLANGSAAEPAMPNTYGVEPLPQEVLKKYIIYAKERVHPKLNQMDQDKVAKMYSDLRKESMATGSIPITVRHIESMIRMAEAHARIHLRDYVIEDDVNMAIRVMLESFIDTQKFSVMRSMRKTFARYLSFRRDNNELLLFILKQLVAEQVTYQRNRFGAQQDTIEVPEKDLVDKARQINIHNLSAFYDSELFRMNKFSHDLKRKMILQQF
Data set [4] shares this target. The experiment in a line: Induction of ubiquitination of MCM2 in human NCI-H1975 cells incubated for 24 hrs by immunoblot analysis. It is filed as cell-based.
Data set [5] has as its target T2, DNA replication licensing factor MCM3 (Homo sapiens) (UniProt P25205).
T2 sequence (whole entry): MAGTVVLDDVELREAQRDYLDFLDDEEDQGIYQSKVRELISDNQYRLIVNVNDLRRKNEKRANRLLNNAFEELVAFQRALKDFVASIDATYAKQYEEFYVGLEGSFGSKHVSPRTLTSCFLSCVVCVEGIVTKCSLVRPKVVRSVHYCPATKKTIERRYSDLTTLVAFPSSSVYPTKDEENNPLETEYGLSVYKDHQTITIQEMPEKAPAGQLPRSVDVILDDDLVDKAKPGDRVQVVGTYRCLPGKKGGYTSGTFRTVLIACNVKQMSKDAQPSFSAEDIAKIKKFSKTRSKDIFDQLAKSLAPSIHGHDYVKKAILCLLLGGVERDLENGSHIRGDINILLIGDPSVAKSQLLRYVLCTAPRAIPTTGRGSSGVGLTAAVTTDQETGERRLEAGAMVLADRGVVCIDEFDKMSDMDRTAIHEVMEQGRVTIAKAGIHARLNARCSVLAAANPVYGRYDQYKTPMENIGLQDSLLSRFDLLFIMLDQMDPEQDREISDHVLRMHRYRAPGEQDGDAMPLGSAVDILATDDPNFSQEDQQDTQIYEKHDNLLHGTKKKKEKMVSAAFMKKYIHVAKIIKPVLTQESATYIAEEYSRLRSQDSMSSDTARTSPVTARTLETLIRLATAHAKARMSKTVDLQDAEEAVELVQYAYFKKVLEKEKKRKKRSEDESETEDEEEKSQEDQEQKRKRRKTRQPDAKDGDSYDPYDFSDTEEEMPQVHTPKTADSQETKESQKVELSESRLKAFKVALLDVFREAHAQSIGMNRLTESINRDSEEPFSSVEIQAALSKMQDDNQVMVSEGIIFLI
The experiment in a line: Induction of ubiquitination of MCM3 in human NCI-H1975 cells incubated for 72 hrs by immunoblot analysis (reference value: 1). Format: cell-based.

For data set [6], the system named is DNA replication licensing factor MCM2 (Homo sapiens), P49736 [Q341A]. The experiment in a line: Induction of ubiquitination of FLAG-tagged MCM2 Q341A mutant (unknown origin) expressed in human NCI-H1975 cells incubated for 24 hrs by magnetic beads technique based immunoblot analysis. Format: cell-based.
Chain of DNA replication licensing factor MCM2 (Homo sapiens), P49736 [Q341A] (P49736 whole entry Q341A): as the sequence (P49736 whole entry) above, with Q341A counted along it
Data set [7] concerns NCI-H1975. The experiment in a line: Cell cycle arrest in human NCI-H1975 cells assessed as accumulation in G2/M phase at 140 nM incubated for 72 hrs by propidium iodide base flow cytometry analysis (reference value: 17 %). Format: functional. In general terms: A flow cytometer gives signals particle by particle.
Data set [8] deals with NCI-H1975. Put plainly: Cell cycle arrest in human NCI-H1975 cells assessed as replication fork at 140 nM incubated for 48 hrs by DAPI staining based immunofluorescence microscopy (reference value: 176.8 +/- 8.7). Format: functional.
The target of data set [9] is DNA replication licensing factor MCM7 (Homo sapiens) (UniProt P33993). Put plainly: Induction of ubiquitination of MCM7 in human NCI-H1975 cells incubated for 48 hrs by immunoblot analysis (reference value: 1). Format: cell-based.
Chain of DNA replication licensing factor MCM7 (Homo sapiens) (P33993 whole entry): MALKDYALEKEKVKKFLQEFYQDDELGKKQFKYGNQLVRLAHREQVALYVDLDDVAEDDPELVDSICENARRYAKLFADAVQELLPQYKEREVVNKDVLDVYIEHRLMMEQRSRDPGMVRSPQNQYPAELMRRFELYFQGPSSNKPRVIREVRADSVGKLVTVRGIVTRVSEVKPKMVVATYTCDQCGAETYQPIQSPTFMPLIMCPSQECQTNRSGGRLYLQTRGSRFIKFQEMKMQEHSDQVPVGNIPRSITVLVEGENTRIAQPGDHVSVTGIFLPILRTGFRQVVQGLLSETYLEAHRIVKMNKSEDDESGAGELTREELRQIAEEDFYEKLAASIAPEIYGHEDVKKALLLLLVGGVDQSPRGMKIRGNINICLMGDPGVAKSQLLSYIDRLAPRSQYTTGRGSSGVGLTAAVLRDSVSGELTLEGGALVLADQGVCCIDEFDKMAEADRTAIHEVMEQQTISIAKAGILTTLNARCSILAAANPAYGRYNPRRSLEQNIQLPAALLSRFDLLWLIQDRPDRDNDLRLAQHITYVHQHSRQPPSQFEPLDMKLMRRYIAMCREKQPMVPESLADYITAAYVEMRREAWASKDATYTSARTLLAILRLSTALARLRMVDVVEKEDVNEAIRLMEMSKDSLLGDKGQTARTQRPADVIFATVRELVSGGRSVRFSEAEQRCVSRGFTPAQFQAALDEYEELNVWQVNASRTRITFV
For data set [10], the target named is DNA replication licensing factor MCM2 (Homo sapiens) (UniProt P49736). The experiment in a line: Induction of ubiquitination of MCM2 in human NCI-H1975 cells incubated for 24 hrs by immunoblot analysis (reference value: 1). Format: cell-based.
The nature of data set [11]: Selectivity index, ratio of IC50 for human bronchial epithelial cells to IC50 for human PC9 cells. It is filed as toxicity. Conditions: human bronchial epithelial cells versus PC9 cells, read-out: Ratio IC50.
For data set [12], the target named is DNA replication licensing factor MCM7 (Homo sapiens) (UniProt P33993). The experiment in a line: Induction of ubiquitination of MCM7 in human NCI-H1975 cells incubated for 72 hrs by immunoblot analysis (reference value: 1). It is filed as cell-based.
Data set [13] in a line: Toxicity in athymic nude BALB/c mouse xenografted with human NCI-H1975 cells assessed as effect on serum blood urea nitrogen at 1 or 4 mg/kg, ip administered for 4 weeks. It is filed as organism-based. The note with it: in vivo, 672 h. In general terms: In xenograft studies the graft and the host belong to different species.
Data set [14] deals with T1, DNA replication licensing factor MCM6 (Homo sapiens). The experiment in a line: Induction of ubiquitination of MCM6 in human NCI-H1975 cells incubated for 72 hrs by immunoblot analysis (reference value: 1). Format: cell-based.
Data set [15] has as its system CL1-0. Put plainly: Antiproliferative activity against human CL1-0 cells assessed as reduction in cell viability incubated for 72 hrs by SRB assay. Format: functional, cell-based. The note with it: CL1-0, 72 h.

pIC50: −log10 of the molar value. Activity calls are given as the source filed them. The rule behind the calls is not given here. Bounds are passed on as bounds.

Take `Cc1oc2c(c1C(=O)NCCCn1ccnc1)C(=O)c1ccccc1C2=O`: the outcome in data set [1] and in data set [3] was Active. The selectivity ratio in [2] and in data set [11] was above 10 each time. The Activity entry was “Dose-dependent effect” in data set [4]; 0.1 in [5]; 38% in data set [7]; 48.8 in data set [8]; 0.5 in [9]; 0.7 in [10]. Further, the Activity in data set [12] was 0.4; in data set [13], “Non-Toxic”; in data set [14] it was 0.2. Besides, the result in data set [6] was inactive. For the same molecule, the pIC50 in [15] was above 7.00.
